Values joined by “and” are separate entries in the source; they are usually repeats but may differ in a detail not shown here. Identical values can stand only once. Like-named read-outs stand apart in the source and are kept apart here.
Experiments:
[1] = target: T1, PB1(3) (h) bromodomain (Homo sapiens, UniProt Q86U86); assay: Epigenetic binding assay, Bromodomain; conditions: read-out: % Inhibition of Control Specific Binding
T1 construct: Bromodomain

[2] = target: JARID1A (h) (Homo sapiens, UniProt P29375); assay: Epigenetic enzyme assay, Demethylases (KDMs); assay type: biochemical; conditions: for inhibition at 10 µM: read-out: % Inhibition of Control Values
Chain of JARID1A (h) (P29375 whole entry): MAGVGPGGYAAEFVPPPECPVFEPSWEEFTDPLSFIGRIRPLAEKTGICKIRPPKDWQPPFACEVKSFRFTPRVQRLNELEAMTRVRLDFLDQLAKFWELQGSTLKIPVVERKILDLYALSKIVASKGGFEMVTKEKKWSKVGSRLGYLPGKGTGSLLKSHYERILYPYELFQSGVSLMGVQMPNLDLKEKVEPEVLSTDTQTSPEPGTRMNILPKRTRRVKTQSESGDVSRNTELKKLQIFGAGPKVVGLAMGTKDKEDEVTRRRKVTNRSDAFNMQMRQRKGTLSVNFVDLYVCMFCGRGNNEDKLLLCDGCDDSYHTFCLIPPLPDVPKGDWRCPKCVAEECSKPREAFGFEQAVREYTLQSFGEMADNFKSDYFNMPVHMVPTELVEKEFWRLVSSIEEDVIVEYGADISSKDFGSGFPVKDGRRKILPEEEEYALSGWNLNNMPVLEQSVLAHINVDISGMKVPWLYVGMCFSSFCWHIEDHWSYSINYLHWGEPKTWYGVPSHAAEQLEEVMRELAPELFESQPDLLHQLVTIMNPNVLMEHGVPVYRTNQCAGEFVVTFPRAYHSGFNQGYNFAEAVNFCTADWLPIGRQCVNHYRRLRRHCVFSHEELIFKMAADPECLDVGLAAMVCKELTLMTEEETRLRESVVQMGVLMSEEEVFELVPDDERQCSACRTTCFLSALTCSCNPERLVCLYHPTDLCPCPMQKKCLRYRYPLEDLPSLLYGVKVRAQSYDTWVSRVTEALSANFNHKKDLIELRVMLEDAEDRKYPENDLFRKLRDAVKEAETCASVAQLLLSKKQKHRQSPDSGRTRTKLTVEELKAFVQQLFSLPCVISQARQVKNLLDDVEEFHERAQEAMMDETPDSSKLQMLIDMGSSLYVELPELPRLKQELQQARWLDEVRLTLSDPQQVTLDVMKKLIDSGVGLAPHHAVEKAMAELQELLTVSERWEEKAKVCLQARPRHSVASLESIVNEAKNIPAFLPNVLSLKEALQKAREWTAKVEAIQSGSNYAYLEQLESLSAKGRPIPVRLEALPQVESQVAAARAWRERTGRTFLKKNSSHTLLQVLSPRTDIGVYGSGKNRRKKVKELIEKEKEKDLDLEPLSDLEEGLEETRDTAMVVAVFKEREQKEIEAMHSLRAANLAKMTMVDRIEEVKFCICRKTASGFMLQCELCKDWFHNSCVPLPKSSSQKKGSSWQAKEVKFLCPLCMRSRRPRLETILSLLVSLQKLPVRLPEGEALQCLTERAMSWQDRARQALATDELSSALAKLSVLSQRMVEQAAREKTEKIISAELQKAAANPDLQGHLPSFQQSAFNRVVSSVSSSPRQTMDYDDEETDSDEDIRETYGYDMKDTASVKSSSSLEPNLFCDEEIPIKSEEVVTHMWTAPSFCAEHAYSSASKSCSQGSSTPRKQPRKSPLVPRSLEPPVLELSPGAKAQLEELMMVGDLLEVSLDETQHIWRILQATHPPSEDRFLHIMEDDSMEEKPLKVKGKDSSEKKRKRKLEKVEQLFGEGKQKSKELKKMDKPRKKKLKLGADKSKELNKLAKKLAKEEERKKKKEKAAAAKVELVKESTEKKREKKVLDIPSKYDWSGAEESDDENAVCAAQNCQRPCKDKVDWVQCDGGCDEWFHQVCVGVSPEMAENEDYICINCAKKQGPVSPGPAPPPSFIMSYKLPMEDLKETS

[3] = target: T2, JMJD1A (h) (Homo sapiens, UniProt Q9Y4C1); assay: Epigenetic enzyme assay, Demethylases (KDMs); assay type: biochemical; conditions: for inhibition at 10 µM: read-out: % Inhibition of Control Values
T2 sequence (Q9Y4C1 1-1321): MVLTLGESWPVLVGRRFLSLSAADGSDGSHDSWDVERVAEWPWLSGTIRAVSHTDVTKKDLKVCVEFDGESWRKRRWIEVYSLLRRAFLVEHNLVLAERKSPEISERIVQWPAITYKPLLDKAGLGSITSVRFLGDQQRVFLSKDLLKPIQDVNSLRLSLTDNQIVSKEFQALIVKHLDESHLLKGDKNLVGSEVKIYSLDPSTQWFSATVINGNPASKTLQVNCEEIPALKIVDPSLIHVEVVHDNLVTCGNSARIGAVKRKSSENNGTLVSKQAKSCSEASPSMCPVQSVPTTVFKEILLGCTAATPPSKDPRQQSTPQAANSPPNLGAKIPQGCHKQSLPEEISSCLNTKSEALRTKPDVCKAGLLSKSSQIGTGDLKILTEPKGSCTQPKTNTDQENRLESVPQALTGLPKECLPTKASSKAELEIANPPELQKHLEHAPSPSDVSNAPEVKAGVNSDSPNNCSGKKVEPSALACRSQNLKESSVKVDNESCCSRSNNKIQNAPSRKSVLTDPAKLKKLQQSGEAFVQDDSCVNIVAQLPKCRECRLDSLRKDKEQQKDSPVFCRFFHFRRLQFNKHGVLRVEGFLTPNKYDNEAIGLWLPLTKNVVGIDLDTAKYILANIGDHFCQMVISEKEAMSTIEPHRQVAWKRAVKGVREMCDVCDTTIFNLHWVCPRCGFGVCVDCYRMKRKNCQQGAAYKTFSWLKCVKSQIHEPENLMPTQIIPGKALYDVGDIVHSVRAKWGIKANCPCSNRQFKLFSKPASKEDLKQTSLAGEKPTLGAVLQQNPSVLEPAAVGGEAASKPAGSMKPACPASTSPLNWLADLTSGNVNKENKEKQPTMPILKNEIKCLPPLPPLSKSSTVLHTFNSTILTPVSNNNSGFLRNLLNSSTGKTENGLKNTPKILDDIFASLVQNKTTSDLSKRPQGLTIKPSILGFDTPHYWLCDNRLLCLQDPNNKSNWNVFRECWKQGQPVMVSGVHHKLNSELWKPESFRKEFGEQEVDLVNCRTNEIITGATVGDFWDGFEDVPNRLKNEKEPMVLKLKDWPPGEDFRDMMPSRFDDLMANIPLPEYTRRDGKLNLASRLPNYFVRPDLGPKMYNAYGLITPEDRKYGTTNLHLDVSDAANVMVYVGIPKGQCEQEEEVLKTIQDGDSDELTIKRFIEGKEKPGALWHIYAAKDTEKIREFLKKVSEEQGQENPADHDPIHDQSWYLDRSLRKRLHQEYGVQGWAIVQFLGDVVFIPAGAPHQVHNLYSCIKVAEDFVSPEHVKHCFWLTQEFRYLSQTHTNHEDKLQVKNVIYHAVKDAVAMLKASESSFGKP

[4] = target: T3, Histamine H2 (Homo sapiens, UniProt P25021); assay: Histamine H2 radio ligand binding
T3 construct: expressed in transfected cells; host or cells: CHO-K1 cells
T3 sequence (P25021 whole entry): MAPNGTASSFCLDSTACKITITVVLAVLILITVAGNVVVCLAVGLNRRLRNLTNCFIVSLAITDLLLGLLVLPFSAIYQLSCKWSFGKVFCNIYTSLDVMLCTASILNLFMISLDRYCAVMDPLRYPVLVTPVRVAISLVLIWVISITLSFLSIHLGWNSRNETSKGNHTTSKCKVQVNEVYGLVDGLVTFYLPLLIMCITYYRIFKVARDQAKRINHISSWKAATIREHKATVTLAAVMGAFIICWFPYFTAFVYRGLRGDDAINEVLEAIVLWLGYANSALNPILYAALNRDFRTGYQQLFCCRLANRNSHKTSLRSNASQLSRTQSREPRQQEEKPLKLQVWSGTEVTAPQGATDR
Experimental: The in vitro pharmacological studies were conducted by Eurofins PanLab (Taiwan) using the parameters shown in Table 13 with respect to appropriate literature references.

[5] = target: T4, Monoamine Oxidase MAO-A (Homo sapiens, UniProt P21397); assay: Monoamine Oxidase MAO-A; assay type: biochemical; conditions: for remaining activity at 10 µM: read-out: % Control Response
T4 construct: host or cells: Insect Hi5 cells
T4 sequence (P21397 1-527): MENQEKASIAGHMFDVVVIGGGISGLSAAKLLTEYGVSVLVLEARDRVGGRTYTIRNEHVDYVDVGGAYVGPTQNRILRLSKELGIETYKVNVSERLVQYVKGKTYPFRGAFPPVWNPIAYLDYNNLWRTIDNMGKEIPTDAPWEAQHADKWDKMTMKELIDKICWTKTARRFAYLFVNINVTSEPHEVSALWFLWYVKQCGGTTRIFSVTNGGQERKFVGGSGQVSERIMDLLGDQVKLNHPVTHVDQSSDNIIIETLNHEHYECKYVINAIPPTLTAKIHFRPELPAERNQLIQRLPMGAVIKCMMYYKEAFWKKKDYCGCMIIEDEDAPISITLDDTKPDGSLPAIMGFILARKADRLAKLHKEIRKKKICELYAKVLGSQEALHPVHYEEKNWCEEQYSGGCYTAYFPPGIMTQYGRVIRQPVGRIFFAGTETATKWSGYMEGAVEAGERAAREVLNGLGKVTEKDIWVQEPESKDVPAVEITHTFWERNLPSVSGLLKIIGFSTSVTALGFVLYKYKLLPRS

[6] = assay year 2014, read-out: % Control Response
[7] = assay year 2015, read-out: % Control Response

T1 sequence (Q86U86 381-487 limits assumed): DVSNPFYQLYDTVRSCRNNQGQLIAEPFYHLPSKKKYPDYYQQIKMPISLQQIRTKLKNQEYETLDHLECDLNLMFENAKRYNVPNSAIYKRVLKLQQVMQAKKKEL

In the case of CC(C)=CCC[C@H](CO)[C@@H]1CC[C@@H](C)c2c1cc(C)c(O)c2O [Compound 1, 7,8,18-trihydroxyserrulat-14-ene], the inhibition at 10 µM [1] is reported as 38%, the “% Inhibition of Control Values” ([2]; 10 μM) is reported as “significant inhibitory activity” and the inhibition at 10 µM ([2]; 10 μM) is reported as 64%. The IC50 ([2]; Table 11, inhibition/concentration-response curve, read-out: IC50) was 9.6 µM, the “% Inhibition of Control Values” ([3]; 10 μM) was “significant inhibitory activity” and the inhibition at 10 µM ([3]; 10 μM) was 80%. It also gave an IC50 ([3]; Table 11, inhibition/concentration-response curve) of 4.5 µM, a remaining activity at 10 µM [4, 6] of 67% and a remaining activity at 10 µM [4, 7] of 73%. The “% Control Response” value ([5]; 10 μM, assay year 2015) was “potent inhibitor”, the remaining activity at 10 µM ([5]; 10 μM, assay year 2015) was 91% and the IC50 ([5]; concentration-response 10 to 0.01 μM) was 6.47 µM and 6.74 µM.
In the case of CC(C)=CCC[C@@H]1COc2c(C)cc(O)c3c2[C@H]1CC[C@H]3C [Compound 3, 5,18-epoxy-8-hydroxyserrulat-14-ene], the inhibition at 10 µM [1] is reported as 6%, the inhibition at 10 µM ([2]; 10 μM) is reported as 3% and the inhibition at 10 µM ([3]; 10 μM) is reported as -1%. It also gave a remaining activity at 10 µM [4, 7] of 66% and a remaining activity at 10 µM ([5]; 10 μM, assay year 2015) of 27%.
Compound CC(C)=CCC[C@@H]1C(O)Oc2c(C)cc(O)c3c2[C@H]1CC[C@H]3C (some centres unmarked) [Compound 2, 5,18-epoxyserrulat-14-en-8,18-diol] has an inhibition at 10 µM [1] of 13%, an inhibition at 10 µM ([2]; 10 μM) of -9% and an inhibition at 10 µM ([3]; 10 μM) of 37%. It also gave a remaining activity at 10 µM [4, 6] of 24%, a remaining activity at 10 µM [4, 7] of -5% and a remaining activity at 10 µM ([5]; 10 μM, assay year 2015) of 34%.

Source: patent publication US11331299B2, “Medicinal use of serrulatane diterpenes” (The University of Sydney, priority 2016, dated 2022)
